For the first experiment, the system named is MCF-7 human breast cancer cells. The experiment in a line: cells. The note with it: MCF7.
Protocol: All biochemical assays were performed in triplicate for the determination of mean values reported. The human breast carcinoma cell line MCF-7 was purchased from the European Collection of Animal Cell Cultures (ECACC) and was cultured in Eagle’s minimum essential medium with 10% fetal bovine serum, 2 mM L-glutamine and 100 μg/mL penicillin/streptomycin. The medium was supplemented with 1% non-essential amino acids. […] All cells were sub-cultured 3 times/week by trypsinisation.
Cells were seeded at a density of 5 × 10^3 cells/well (MCF-7) in triplicate in 96-well plates. […] Cell proliferation for MCF-7 and MDA-MB-231 cells was analysed using the Alamar Blue assay (Invitrogen Corp.). […] Experiments were performed in triplicate on at least three separate occasions.
`C=C(C)C1C(=O)N(c2cc(OC)c(OC)c(OC)c2)C1c1ccc(OC)c([N+](=O)[O-])c1` (stereo not drawn) [9r, 4-(4-Methoxy-3-nitrophenyl)-1-(3,4,5-trimethoxyphenyl)-3-(prop-1-en-2-yl)azetidin-2-one] returned an IC50 of 0.01 to 0.033 µM.

The same experiment, now with this note: MCF7, 72 h, MCF-7, Figure 2, 72 h.
In turn, `C=C(C)C1C(=O)N(c2cc(OC)c(OC)c(OC)c2)C1c1cccc2ccccc12` (stereo not drawn) [9m, 4-Naphthalen-1-yl-1-(3,4,5-trimethoxyphenyl)-3-(prop-1-en-2-yl)azetidin-2-one] yielded an IC50 of 8.07 µM.

Consider `C=C(C)C1C(=O)N(c2cc(OC)c(OC)c(OC)c2)C1c1ccc(OC)c(NC(=O)C(N)Cc2ccccc2)c1` (stereo not drawn) [13a, 2-Amino-N-(2-methoxy-5-(1-(3,4,5-trimethoxyphenyl)-4-oxo-3-(prop-1-en-2-yl)azetidin-2-yl)phenyl)-3-phenylpropanamide], for which the IC50 was found to be 4.92 µM.

Staying with this experiment, now noted: MCF7, 72 h, read-out: Antiproliferative Activity IC50, MCF-7, 72 h, eight concentrations 1–50 μM, mean ± SEM, Table 2.
As for `C=C(C)C1C(=O)N(c2cc(OC)c(OC)c(OC)c2)C1c1cccc2ccccc12` (stereo not drawn) [9m, 4-Naphthalen-1-yl-1-(3,4,5-trimethoxyphenyl)-3-(prop-1-en-2-yl)azetidin-2-one], the IC50 came out at 44.1 ± 2.57 µM.

Still in this experiment, the particulars now being: MCF7, 72 h, read-out: Antiproliferative Activity IC50, MCF-7, 72 h, eight concentrations (0.001–50 mM [sic]), mean ± SEM, Table 5.
Turning to `COc1ccc(C2C(CC=Cc3ccccc3)C(=O)N2c2cc(OC)c(OC)c(OC)c2)cc1O` (stereo not drawn) [17b, 3-Cinnamyl-4-(3-hydroxy-4-methoxyphenyl)-1-(3,4,5-trimethoxyphenyl)azetidin-2-one], the IC50 was 1.09 ± 0.08 µM.

`O=C1C(CC=Cc2ccccc2)C(c2ccccc2)N1c1ccccc1` (stereo not drawn) [17c, 3-Cinnamyl-1,4-diphenylazetidin-2-one]: the IC50 worked out at 75.4 ± 8.12 µM.

With `COc1ccc(C2C(CC=Cc3ccc(C(F)(F)F)cc3)C(=O)N2c2cc(OC)c(OC)c(OC)c2)cc1` (stereo not drawn) [17d, 3-(4-(Trifluoromethyl)cinnamyl)-4-(4-methoxyphenyl)-1-(3,4,5-trimethoxyphenyl) azetidin-2-one], the IC50 is 49.5 ± 5.23 µM.

As to `COc1ccc(C2C(CC=Cc3ccc(C(F)(F)F)cc3)C(=O)N2c2ccccc2)cc1` (stereo not drawn) [17e, 3-(4-(Trifluoromethyl)cinnamyl)-4-(4-methoxyphenyl)-1-phenylazetidin-2-one], the IC50 was determined as 4.76 ± 0.56 µM.

As to `CCOC(=O)CC1C(=O)N(c2cc(OC)c(OC)c(OC)c2)C1c1ccc(OC)c(O)c1` (stereo not drawn) [17g, Ethyl-2-(2-(3-hydroxy-4-methoxyphenyl)-1-(3,4,5-trimethoxyphenyl)-4-oxoazetidin-3-yl)acetate], the IC50 stood at 0.075 ± 0.01 µM.

The experiment is the same for the next values; noted with them: MCF7, read-out: Antiproliferative Activity IC50.
For the compound `C=CCC1C(=O)N(c2cc(OC)c(OC)c(OC)c2)C1c1ccc(OC)c(OP(=O)(O)O)c1` (stereo not drawn) [15c, 5-(3-Allyl-1-(3,4,5-trimethoxyphenyl)-4-oxoazetidin-2-yl)-2-methoxyphenyl dihydrogen phosphate], the IC50 was 0.094 ± 0.015 µM.

As to `CCCC1C(=O)N(c2cc(OC)c(OC)c(OC)c2)C1c1ccc(OC)c(OP(=O)(O)O)c1` (stereo not drawn) [15d, 2-Methoxy-5-(1-(3,4,5-trimethoxyphenyl)-4-oxo-3-propylazetidin-2-yl)phenyl dihydrogen phosphate], the IC50 was determined as 0.032 ± 0.005 µM.

Still in this experiment, the particulars now being: MCF7, read-out: Antiproliferative Activity IC50, MCF-7, eight concentrations 0.001–50 μM, mean ± SEM, Table 3.
As to `C=CCC1C(=O)N(c2cc(OC)c(OC)c(OC)c2)C1c1ccc([N+](=O)[O-])cc1` (stereo not drawn) [10a, 3-Allyl-4-(4-nitrophenyl)-1-(3,4,5-trimethoxyphenyl)azetidin-2-one], the IC50 turned out to be 4.13 ± 0.62 µM.

As to `C=CCC1C(=O)N(c2cc(OC)c(OC)c(OC)c2)C1c1ccc(Cl)cc1` (stereo not drawn) [10b, 3-Allyl-4-(4-chlorophenyl)-1-(3,4,5-trimethoxyphenyl)azetidin-2-one], the IC50 was 0.621 ± 0.095 µM.

On to `C=CCC1C(=O)N(c2cc(OC)c(OC)c(OC)c2)C1c1ccc(Br)cc1` (stereo not drawn) [10c, 3-Allyl-4-(4-bromophenyl)-1-(3,4,5-trimethoxyphenyl)azetidin-2-one], for which the IC50 stood at 0.944 ± 0.1 µM.

For the compound `C=CCC1C(=O)N(c2cc(OC)c(OC)c(OC)c2)C1c1ccc(N(C)C)cc1` (stereo not drawn) [10e, 3-Allyl-4-(4-dimethylaminophenyl)-1-(3,4,5-trimethoxyphenyl)azetidin-2-one], the IC50 came out at 4.46 ± 0.11 µM.

With `C=CCC1C(=O)N(c2cc(OC)c(OC)c(OC)c2)C1c1ccccc1` (stereo not drawn) [10f, 3-Allyl-4-phenyl-1-(3,4,5-trimethoxyphenyl)azetidin-2-one], the IC50 came out at 9.61 ± 1.2 µM.

On to `C=CCC1C(=O)N(c2cc(OC)c(OC)c(OC)c2)C1c1ccc(OCC)cc1` (stereo not drawn) [10i, 3-Allyl-4-(4-ethoxyphenyl)-1-(3,4,5-trimethoxyphenyl)azetidin-2-one], for which the IC50 worked out at 0.091 ± 0.01 µM.

`C=CCC1C(=O)N(c2cc(OC)c(OC)c(OC)c2)C1c1ccc(OCCCC)cc1` (stereo not drawn) [10j, 3-Allyl-4-(4-butoxyphenyl)-1-(3,4,5-trimethoxyphenyl)azetidin-2-one]: the IC50 came to 17.4 ± 1.23 µM.

For `C=CCC1C(=O)N(c2cc(OC)c(OC)c(OC)c2)C1c1ccc(Oc2ccccc2)cc1` (stereo not drawn) [10k, 3-Allyl-4-(4-phenoxyphenyl)-1-(3,4,5-trimethoxyphenyl)azetidin-2-one], the IC50 was determined as 7.49 ± 0.6 µM.

Regarding `C=CCC1C(=O)N(c2cc(OC)c(OC)c(OC)c2)C1c1ccc2ccccc2c1` (stereo not drawn) [10n, 3-Allyl-4-naphthalen-2-yl-1-(3,4,5-trimethoxyphenyl)azetidin-2-one], the IC50 was 0.318 ± 0.03 µM.

As for `C=CCC1C(=O)N(c2ccccc2)C1c1ccc(OC)cc1` (stereo not drawn) [10s, 3-Allyl-4-(4-Methoxyphenyl)-1-phenylazetidin-2-one], the IC50 was 84.5 ± 8.1 µM.

As for `C=CCC1C(=O)N(c2cc(OC)c(OC)c(OC)c2)C1c1ccc(OC)c(NC(=O)C(N)Cc2ccccc2)c1` (stereo not drawn) [13b, N-(5-(3-Allyl-1-(3,4,5-trimethoxyphenyl)-4-oxoazetidin-2-yl)-2-methoxyphenyl)-2-amino-3-phenylpropanamide], the IC50 was 10.7 ± 1.94 µM.

Turning to `C=CCC1C(=O)N(c2cc(OC)c(OC)c(OC)c2)C1c1ccc(OC)c(NC(=O)C(N)C(C)C)c1` (stereo not drawn) [13c, N-(5-(3-Allyl-1-(3,4,5-trimethoxyphenyl)-4-oxoazetidin-2-yl)-2-methoxyphenyl)-2-amino-3-methylbutanamide], the IC50 worked out at 13 ± 1.25 µM.

The same experiment, now with this note: MCF7, read-out: Antiproliferative Activity IC50, MCF-7, eight concentrations 0.001–50 μM, mean ± SEM, Table 4.
Regarding `C=C/C=C/C1C(=O)N(c2cc(OC)c(OC)c(OC)c2)C1c1ccc(N(C)C)cc1` (stereo not drawn) [11e, (E)-3-(Buta-1,3-dien-1-yl)-4-(4-dimethylaminophenyl)-1-(3,4,5-trimethoxyphenyl)azetidin-2-one], the IC50 turned out to be 1.93 ± 0.34 µM.

As to `C=C/C=C/C1C(=O)N(c2cc(OC)c(OC)c(OC)c2)C1c1ccc(OCCCC)cc1` (stereo not drawn) [11j, (E)-3-(Buta-1,3-dien-1-yl)-4-(4-butoxyphenyl)-1-(3,4,5-trimethoxyphenyl)-azetidin-2-one], the IC50 came to 182 ± 19.4 µM.

For the compound `C=C/C=C/C1C(=O)N(c2cc(OC)c(OC)c(OC)c2)C1c1ccc(OCc2ccccc2)cc1` (stereo not drawn) [11l, (E)-3-(Buta-1,3-dien-1-yl)-4-(4-benzyloxyphenyl)-1-(3,4,5-trimethoxyphenyl)azetidin-2-one], the IC50 was determined as 145 ± 11.7 µM.

As to `C=C/C=C/C1C(=O)N(c2cc(OC)c(OC)c(OC)c2)C1c1ccc2ccccc2c1` (stereo not drawn) [11n, (E)-3-(Buta-1,3-dien-1-yl)-4-(naphthalen-2-yl)-1-(3,4,5-trimethoxyphenyl)azetidin-2-one], the IC50 was 0.296 ± 0.05 µM.

Regarding `C=C/C=C/C1C(=O)N(c2ccccc2)C1c1ccc(OC)cc1` (stereo not drawn) [11s, (E)-3-(Buta-1,3-dien-1-yl)-4-(4-methoxyphenyl)-1-phenylazetidin-2-one], the IC50 came to 15.2 ± 1.41 µM.

For `C=C/C=C/C1C(=O)N(c2cc(OC)c(OC)c(OC)c2)C1c1ccc(OC)c(NC(=O)C(N)C(C)C)c1` (stereo not drawn) [13d, 2-Amino-N-(5-(3-((E)-buta-1,3-dienyl)-1-(3,4,5-trimethoxyphenyl)-4-oxoazetidin-2-yl)-2-methoxyphenyl)-3-methylbutanamide], the IC50 was found to be 24.2 ± 3.91 µM.

With `C=CC=CC1C(=O)N(c2cc(OC)c(OC)c(OC)c2)C1c1ccc(OC)c(NC(=O)CN)c1` (stereo not drawn) [13e, 2-Amino-N-(5-(3-(buta-1,3-dienyl)-1-(3,4,5-trimethoxyphenyl)-4-oxoazetidin-2-yl)-2-methoxyphenyl)acetamide], the IC50 was determined as 9.36 ± 1.21 µM.

The values are drawn from publication PMC10385824, “Antiproliferative and Tubulin-Destabilising Effects of 3-(Prop-1-en-2-yl)azetidin-2-Ones and Related Compounds in MCF-7 and MDA-MB-231 Breast Cancer Cells” (Pharmaceuticals, 2023).
